Experimental data: ChEMBL document CHEMBL4665874, “The splicing modulator sulfonamide indisulam reduces AR-V7 in prostate cancer cells” (2020)
The source made the active and inactive calls. The calls are words filed in the database; no cut-off is given here.

What was measured:
[1] = test system: Mus musculus; test: Reduction in AR-V7 level in tumor lysates of NSG mouse xenografted with human VCaP cells at 10 mg/kg, po co-administered with 25 mg/kg AR antagonist MDV via gavage with 5 days on and 2 days off dosing schedule for 6 weeks by immunoblot analysis; assay type: functional, organism-based; details: Neoplasm
[2] = test system: Mus musculus; test: Reduction in AR-V7 level in tumor lysates of NSG mouse xenografted with human VCaP cells at 10 mg/kg, po administered via gavage with 5 days on and 2 days off dosing schedule for 6 weeks by immunoblot analysis; assay type: functional, organism-based; details: Neoplasm
[3] = test system: Mus musculus; test: Reduction in total AR isoforms in tumor lysates of NSG mouse xenografted with human VCaP cells at 10 mg/kg, po administered via gavage with 5 days on and 2 days off dosing schedule for 6 weeks by immunoblot analysis; assay type: functional, organism-based; details: Neoplasm
[4] = test system: VCaP; test: Antitumor activity against human VCaP cells xenografted in NSG mouse assessed as tumor volume at 10 mg/kg, po co-administered with 25 mg/kg AR antagonist MDV via gavage with 5 days on and 2 days off dosing schedule for 6 weeks and measured bi-weekly for 6 weeks (reference value: 698.9 +/-286.5 […]); assay type: functional
[5] = test system: VCaP; test: Antitumor activity against human VCaP cells xenografted in NSG mouse assessed as tumor volume at 10 mg/kg, po administered via gavage with 5 days on and 2 days off dosing schedule for 6 weeks and measured bi-weekly for 6 weeks; assay type: functional
[6] = test system: VCaP; test: Antiproliferative activity against human VCaP cells assessed as reduction in cell viability at 1 to 10 uM after 14 days in presence of AR antagonist MDV by Celltiter-Glo luminescence assay; assay type: functional, cell-based; details: dose microM 1-10, time 14.0 day
[7] = target: T1, RNA-binding protein 39 (Homo sapiens) (UniProt Q14498); test: Induction of RBM39 degradation in human VCaP cells assessed as AR splicing modulation by measuring reduction in AR-V7 splice variant mRNA transcript level incubated for 24 hrs in presence of AR antagonist MDV by RT-qPCR analysis; assay type: cell-based
T1 sequence (whole entry): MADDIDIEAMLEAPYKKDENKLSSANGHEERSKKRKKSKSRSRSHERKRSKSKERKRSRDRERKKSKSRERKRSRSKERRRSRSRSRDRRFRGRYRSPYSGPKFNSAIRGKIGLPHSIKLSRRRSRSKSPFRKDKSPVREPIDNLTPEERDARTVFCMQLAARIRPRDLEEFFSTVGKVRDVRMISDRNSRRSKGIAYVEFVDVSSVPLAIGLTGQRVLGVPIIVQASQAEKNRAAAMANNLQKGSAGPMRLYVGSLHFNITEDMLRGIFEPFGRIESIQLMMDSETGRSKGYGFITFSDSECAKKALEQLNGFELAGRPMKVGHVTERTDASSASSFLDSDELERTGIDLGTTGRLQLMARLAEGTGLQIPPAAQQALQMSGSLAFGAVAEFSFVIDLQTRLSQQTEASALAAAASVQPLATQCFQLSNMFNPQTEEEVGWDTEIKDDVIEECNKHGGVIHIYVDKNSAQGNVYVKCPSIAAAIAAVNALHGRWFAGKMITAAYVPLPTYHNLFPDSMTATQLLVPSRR

[8] = target: T2, Androgen receptor (Homo sapiens) (UniProt P10275); test: Antagonist activity at AR in human VCaP cells assessed as upregulation of DHT-suppressed AR-V7 mRNA transcript level at 10 uM preincubated for 24 hrs with DHT followed by wash-out and then incubated with compound for 24 hrs by RT-qPCR analysis; assay type: cell-based
T2 sequence (whole entry): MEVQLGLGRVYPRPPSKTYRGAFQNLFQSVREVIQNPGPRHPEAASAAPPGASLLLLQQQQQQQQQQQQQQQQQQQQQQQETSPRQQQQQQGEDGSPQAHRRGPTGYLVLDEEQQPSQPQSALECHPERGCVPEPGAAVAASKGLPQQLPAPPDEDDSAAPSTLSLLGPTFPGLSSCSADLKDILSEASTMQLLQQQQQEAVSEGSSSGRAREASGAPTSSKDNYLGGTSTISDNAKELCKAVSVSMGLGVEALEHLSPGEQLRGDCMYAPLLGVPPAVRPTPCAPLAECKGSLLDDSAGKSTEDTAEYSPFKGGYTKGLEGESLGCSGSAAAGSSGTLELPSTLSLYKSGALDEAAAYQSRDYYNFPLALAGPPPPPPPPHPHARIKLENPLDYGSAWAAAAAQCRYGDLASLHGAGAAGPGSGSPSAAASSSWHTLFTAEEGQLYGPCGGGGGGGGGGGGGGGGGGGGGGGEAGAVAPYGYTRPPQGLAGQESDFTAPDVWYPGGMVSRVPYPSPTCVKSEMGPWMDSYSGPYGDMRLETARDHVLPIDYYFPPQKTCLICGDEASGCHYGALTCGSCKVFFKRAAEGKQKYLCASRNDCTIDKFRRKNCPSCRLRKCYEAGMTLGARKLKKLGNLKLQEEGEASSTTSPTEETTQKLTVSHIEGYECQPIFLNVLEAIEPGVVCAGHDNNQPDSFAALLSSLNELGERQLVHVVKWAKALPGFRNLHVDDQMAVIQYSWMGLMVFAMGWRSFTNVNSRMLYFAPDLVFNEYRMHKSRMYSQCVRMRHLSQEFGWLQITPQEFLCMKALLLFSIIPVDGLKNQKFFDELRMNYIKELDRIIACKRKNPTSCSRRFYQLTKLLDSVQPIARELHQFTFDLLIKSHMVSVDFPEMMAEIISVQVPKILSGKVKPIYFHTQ

[9] = test system: VCaP; test: Effect on MDV-induced recovery of DHT-suppressed full length AR mRNA expression in human VCaP cells at 10 uM preincubated for 24 hrs with DHT followed by wash-out and then incubated with compound for 24 hrs in presence of AR antagonist , MDV by RT-qPCR analysis; assay type: functional, cell-based
[10] = test system: VCaP; test: Effect on full-length AR mRNA level in human VCaP cells at 10 uM after 24 hrs by RT-qPCR analysis; assay type: functional, cell-based
[11] = test system: Mus musculus; test: Reduction in RBM39 level in tumor lysates of NSG mouse xenografted with human VCaP cells at 10 mg/kg, po administered via gavage with 5 days on and 2 days off dosing schedule for 6 weeks by immunoblot analysis; assay type: functional, organism-based; details: Neoplasm
[12] = test system: Mus musculus; test: Reduction in RBM39 level in tumor lysates of NSG mouse xenografted with human VCaP cells at 10 mg/kg, po co-administered with 25 mg/kg AR antagonist MDV via gavage with 5 days on and 2 days off dosing schedule for 6 weeks by immunoblot analysis; assay type: functional, organism-based; details: Neoplasm
[13] = test system: Mus musculus; test: Reduction in total AR isoforms in tumor lysates of NSG mouse xenografted with human VCaP cells at 10 mg/kg, po co-administered with 25 mg/kg AR antagonist MDV via gavage with 5 days on and 2 days off dosing schedule for 6 weeks by immunoblot analysis; assay type: functional, organism-based; details: Neoplasm
[14] = test system: VCaP; test: Recovery of DHT-suppressed full length AR mRNA expression in human VCaP cells at 10 uM preincubated for 24 hrs with DHT followed by wash-out and then incubated with compound for 24 hrs by RT-qPCR analysis; assay type: functional, cell-based
[15] = target: T1, RNA-binding protein 39 (Homo sapiens); test: Induction of RBM39 degradation in human VCaP cells assessed as reduction in AR-V7 protein expression preincubated for 24 hrs with DHT followed by wash-out and incubated with compound for 24 hrs in presence of AR antagonist MDV by western blot analysis; assay type: cell-based
[16] = target: T1, RNA-binding protein 39 (Homo sapiens); test: Induction of RBM39 degradation in human VCaP cells assessed as reduction in RBM39 protein expression preincubated for 24 hrs with DHT followed by wash-out and incubated with compound for 24 hrs in presence of AR antagonist MDV by western blot analysis; assay type: cell-based
[17] = target: T1, RNA-binding protein 39 (Homo sapiens); test: Induction of RBM39 degradation in human VCaP cells assessed as reduction in RBM39 protein expression at 10 uM preincubated for 24 hrs with DHT followed by wash-out and incubated with compound for 24 hrs in presence of AR antagonist MDV by western blot analysis; assay type: cell-based

- Activity [7]: Dose-dependent effect
- Activity [8]: inactive
- Activity [15]: Dose-dependent effect
- Activity [16]: Dose-dependent effect
- Activity [17]: Active
SMILES: NS(=O)(=O)c1ccc(S(=O)(=O)Nc2cccc3c(Cl)c[nH]c23)cc1 [INDISULAM]
- inhibition [1]: Active
- inhibition [2]: Active
- inhibition [3]: Active
- Activity [4]: 409 mm3
- Activity [5]: 152 mm3
- Activity [6]: Active
- Activity [9]: inactive
- Activity [10]: inactive
- inhibition [11]: Active
- inhibition [12]: inactive
- inhibition [13]: Active
- Activity [14]: Active
